Values of other authors in US12403100B2, “Natural combination products and methods for regulation of total blood cholesterol” (priority 2018, dated 2025).
Values belong to the compound of their own block, whether it stands above or below them.

Assays:
[1] = in vivo
[2] = in vivo; remark: listed apart in the source
CYP 2C9 = CYP 2C9 (Homo sapiens, UniProt P11712)
CYP 3A4 = CYP 3A4 (Homo sapiens, UniProt P08684)
[3] = target: T1, pancreatic cholesterol esterase (Sus scrofa, UniProt A0A286ZKB1); conditions: depending on their concentration
T1 sequence (A0A286ZKB1 1-682): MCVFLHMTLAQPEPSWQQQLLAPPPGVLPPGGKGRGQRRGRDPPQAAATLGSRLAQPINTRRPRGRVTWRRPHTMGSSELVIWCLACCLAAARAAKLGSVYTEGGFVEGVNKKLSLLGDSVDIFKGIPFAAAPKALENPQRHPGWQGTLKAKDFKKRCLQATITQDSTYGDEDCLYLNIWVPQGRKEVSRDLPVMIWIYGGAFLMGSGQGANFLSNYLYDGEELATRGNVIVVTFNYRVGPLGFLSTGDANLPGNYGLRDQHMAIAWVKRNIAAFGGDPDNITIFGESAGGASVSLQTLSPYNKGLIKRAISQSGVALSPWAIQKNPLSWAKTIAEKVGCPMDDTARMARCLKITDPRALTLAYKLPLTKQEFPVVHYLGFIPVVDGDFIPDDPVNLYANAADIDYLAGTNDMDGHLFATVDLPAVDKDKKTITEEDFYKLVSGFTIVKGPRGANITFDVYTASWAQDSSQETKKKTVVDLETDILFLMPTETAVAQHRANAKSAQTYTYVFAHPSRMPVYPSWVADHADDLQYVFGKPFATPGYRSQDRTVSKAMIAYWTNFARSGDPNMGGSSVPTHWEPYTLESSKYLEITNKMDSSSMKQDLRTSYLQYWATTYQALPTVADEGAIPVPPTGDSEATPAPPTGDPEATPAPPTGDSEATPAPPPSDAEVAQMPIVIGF

lipoprotein mycelia = conditions: concentration of 0.2 mg/mL
[4] = not given; remark: listed apart in the source
[5] = system: hyperlipidemic patients with hypertension; conditions: intake of 20 mg of lovastatin, same time (8 weeks)
[6] = aqueous-acidic medium
[7] = Reynoso et al. 2002
[8] = not given; remark: listed apart in the source

Chain of CYP 2C9 (P11712 whole entry): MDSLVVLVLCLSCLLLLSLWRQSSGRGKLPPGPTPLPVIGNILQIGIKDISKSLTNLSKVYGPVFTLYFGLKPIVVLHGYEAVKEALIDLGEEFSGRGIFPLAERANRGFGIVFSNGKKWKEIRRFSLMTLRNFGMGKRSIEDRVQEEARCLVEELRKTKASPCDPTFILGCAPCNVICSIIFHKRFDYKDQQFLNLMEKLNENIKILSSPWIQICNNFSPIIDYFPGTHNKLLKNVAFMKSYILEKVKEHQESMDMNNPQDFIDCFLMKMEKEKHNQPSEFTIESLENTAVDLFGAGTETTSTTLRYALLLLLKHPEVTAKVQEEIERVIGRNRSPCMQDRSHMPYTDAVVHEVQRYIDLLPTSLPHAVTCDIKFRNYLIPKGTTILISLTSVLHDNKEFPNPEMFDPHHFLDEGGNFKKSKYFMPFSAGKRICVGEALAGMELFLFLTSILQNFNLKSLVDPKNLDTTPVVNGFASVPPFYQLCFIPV
Chain of CYP 3A4 (P08684 whole entry): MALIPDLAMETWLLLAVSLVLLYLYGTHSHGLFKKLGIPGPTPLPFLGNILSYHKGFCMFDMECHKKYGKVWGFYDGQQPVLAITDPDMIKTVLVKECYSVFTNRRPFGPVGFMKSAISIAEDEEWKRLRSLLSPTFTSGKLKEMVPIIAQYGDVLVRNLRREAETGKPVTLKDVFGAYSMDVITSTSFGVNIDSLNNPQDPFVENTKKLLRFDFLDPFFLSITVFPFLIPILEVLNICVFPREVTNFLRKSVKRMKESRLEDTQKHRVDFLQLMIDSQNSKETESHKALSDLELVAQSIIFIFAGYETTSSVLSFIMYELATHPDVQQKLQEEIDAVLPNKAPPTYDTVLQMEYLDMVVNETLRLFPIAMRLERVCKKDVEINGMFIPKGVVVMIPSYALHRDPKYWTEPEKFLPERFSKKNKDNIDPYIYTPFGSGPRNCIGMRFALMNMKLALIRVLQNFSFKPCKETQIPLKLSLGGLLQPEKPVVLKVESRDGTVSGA

Metabolism by CYP450 (CYP450): No | Absorption (%) [1]: 35% | Plasma half-life [1]: 0.9 to 1.6 h | Renal excretion (%) [1]: 60% | Binding to Plasma proteins (%) (plasma proteins): 40-50% | Passing through the blood-brain barrier [2]: No | lipophilic or hydrophilic: hydrophilic | metabolized by CYP 3A4 (CYP 3A4): not metabolized
Compound: CC[C@H](C)C(=O)O[C@H]1C[C@H](O)C=C2C=C[C@H](C)[C@H](CC[C@@H](O)C[C@@H](O)CC(=O)O)[C@H]21 [Pravastatin]

energy required for lactonization of mevinolinic acid in lovastatin [6]: 4.93 kcal/mol | solubility in fat [8]: with more difficultly in fat | solubility in water [8]: dissolves easily in water
Compound: CC[C@H](C)C(=O)O[C@H]1C[C@@H](C)C=C2C=C[C@H](C)[C@H](CC[C@@H](O)C[C@@H](O)CC(=O)O)[C@H]21 [Mevinolinic acid]

Second part, the compound before the results:

Compound: CC(C)n1c(/C=C/C(O)CC(O)CC(=O)O)c(-c2ccc(F)cc2)c2ccccc21 (centres unmarked) [Fluvastatin]
Metabolism by CYP450 (CYP450): Yes | Plasma half-life [1]: 1.2 h | Passing through the blood-brain barrier [2]: No | lipophilic or hydrophilic: lipophilic | metabolized by CYP 2C9 (CYP 2C9): metabolized

Compound: CC(C)c1nc(N(C)S(C)(=O)=O)nc(-c2ccc(F)cc2)c1/C=C/[C@@H](O)C[C@@H](O)CC(=O)O [rosuvastatin]
lipophilic or hydrophilic: hydrophilic | metabolized by CYP 3A4 (CYP 3A4): not metabolized | metabolized by CYP 2C9 (CYP 2C9): metabolized

Compound: catechin
inhibition of pancreatic cholesterol ester [3]: significantly inhibit | reduction of the formation of lipoprotein mycelia (lipoprotein mycelia): 11.88±0.75%

Compound: CCC(C)(C)C(=O)O[C@H]1C[C@@H](C)C=C2C=C[C@H](C)[C@H](CC[C@@H]3C[C@@H](O)CC(=O)O3)[C@H]21 [Simvastatin]
Plasma half-life [1]: 1.3 to 2.4 h

Compound: CC[C@H](C)C(=O)O[C@H]1C[C@@H](C)C=C2C=C[C@H](C)[C@H](CC[C@@H]3C[C@@H](O)CC(=O)O3)[C@H]21 [Lovastatin]
remaining share of the maximal concentration ([4]; after about 24 hours): 10% | absorbed in the gastrointestinal tract ([4]; from the taken dose): about 30% | passage through the placental barrier ([4]; in vivo): passes through the placental barrier | share converted to beta hydroxyl acid ([4]; in vivo): about 30% | time to maximal hypolipidemic effect ([4]; in vivo): 4-6 weeks | time to overt hypolipidemic effect ([4]; in vivo): 2 weeks | time until maximal concentration is reached ([4]; in vivo): about 2 hours | eliminated in excrement ([4]; taken orally): 83% | eliminated in the urine ([4]; taken orally): 10% | Absorption (%) [1]: 31% | Plasma half-life [1]: 2 to 4 h | Renal excretion (%) [1]: 30% | Binding to Plasma proteins (%) (plasma proteins): 95% | bound to plasma proteins (plasma proteins; lovastatin and its metabolites): > 95% | reduction in cholesterol [5]: 19% | energy released by the reverse process (hydrolysis) [6]: 2.42 kcal/mol | absorbed from the digestive tract [7]: ~30% | solubility in fat [8]: dissolves more easily in fat | solubility in water [8]: difficult to dissolve in water | lipophilic or hydrophilic: lipophilic

Compound: O=C(O)c1cc(O)c(O)c(O)c1 [gallic acid]
inhibition of pancreatic cholesterol ester [3]: significantly inhibit | reduction of the formation of lipoprotein mycelia (lipoprotein mycelia): 27.26±2.17%
